The numbers were not newly measured in publication PMC2600787, “Flanking p10 contribution and sequence bias in matrix based epitope prediction: revisiting the assumption of independent binding pockets” (BMC Structural Biology, 2008), which cites them from elsewhere.

One series concerns the target HLA-DRB3*0101 (HLA-DR52a) (Homo sapiens, UniProt P01903+P79483). Particulars: earlier structural and binding studies; crystallography CSP, unpublished; ref not given. From the text:
Results from structural and binding studies using the peptide […] in complex with HLA-DRB3*0101 (HLA-DR52a) show a contribution from position p10. 24-[…]-39, from the N-terminus of human […] is a major ligand of DR52a. A natural variant of the epitope widely distributed in the population is 24-[…]-39. The Leu33/Pro33 dimorphism is the basis of the unidirectional alloimmune posttransfusion thrombocytopenia purpura (PTP) and fetal-maternal alloimmune thrombocytopenia (FMAIT), severe blood disorders in some DR52a subjects homozygous in Pro33 [[2 ...
On to AWCSDEALPPGSPRCD, for which the “binding to DR52a (in words)” value is listed as “does not bind”.

Regarding “AWCSDEALPLGSPRCD [peptide from the N-terminus of human integrin α2βIIIa, a major ligand of DR52a]”, the “binding to DR52a (in words)” value is “major ligand”.

As to “AWCSDEALPPLS [Pro33 integrin peptide with leucine replacing glycine at position 10]”, the “binding to DR52a (in words)” value was “has been demonstrated to bind”.

As for “AWCSDEALPPGS [shorter Pro33 integrin peptide]”, the “binding to DR52a (in words)” value is “does not bind”.

The test system of a further series is HLA-DR1. Further details: method as in 2 sources, ref Geluk et al. [32] ||| ref [32] = [32]; PMID 9753297; doi:10.2337/diabetes.47.10.1594; Geluk A van Meijgaarden KE Schloot NC Drijfhout JW Ottenhoff TH Roep BO HLA-DR binding analysis of peptides from islet antigens in IDDM Diabetes 1998 47 1594 1601 9753297 10.2337/diabetes.47.10.1594; pIC50exp: unit not given here. The settings on record: according to IC50 binding measurements; ref [32]. From the text: Anchor residues at dominant pockets p1, p4, p6 and p9 are as expected for DR1 [12].
“SCSKVDVNYAFLHATDLLPA [peptide 9, 20-mer peptide from GAD65]”: the “binding to DR1 (in words)” value is listed as “strong binder”.

Staying with this series, now noted: experimental binding affinity to HLA-DR1; logarithmic transform of IC50; 20-mer peptides from GAD65 (1 through 100) and ICA69 (101 and above), pruned to remove poor binders; ref Geluk et al. [32].
Consider “RKESSSFKTEDGKSILSALD [peptide 132, 20-mer peptide from ICA69]”, for which the pIC50exp is listed as 0.52.

For the substance “115: 20-mer peptide from ICA69 (VETFRHRAISDTWLTVNRME) [compound 115]”, the pIC50exp is 1.10.

Consider “SVVNKMQQRYWETKQAFIKA [peptide 103, 20-mer peptide from ICA69]”, for which the pIC50exp is listed as 1.00.

For “LQDVMNILLQYVVKSFDRST [peptide 12, 20-mer peptide from GAD65]”, the pIC50exp is on record as -0.60.

Regarding “LVSATAGTTVYGAFDPLLAV [peptide 33, 20-mer peptide from GAD65]”, the pIC50exp is 0.05.

With “DPDLYKQMEKFRKVQTQVRL [peptide 119, 20-mer peptide from ICA69]”, the pIC50exp was 0.22.

Regarding “FRKVQTQVRLAKKNFDKLKM [peptide 120, 20-mer peptide from ICA69]”, the pIC50exp was 0.00.

“YVVKSFDRSTKVIDFHYPNE [peptide 13, 20-mer peptide from GAD65]”: the pIC50exp is listed as -0.77.

On to “AIHESFKGYQPYEFTTLKSL [peptide 126, 20-mer peptide from ICA69]”, for which the pIC50exp is reported as 0.10.

Consider “QCRTEYRGALLWMKDVSQEL [peptide 117, 20-mer peptide from ICA69]”, for which the pIC50exp is listed as 1.10.

For “MASPGSGFWSFGSEDGSGDS [peptide 1, 20-mer peptide from GAD65]”, the pIC50exp is -0.70.

For the substance “SCSKVDVNYAFLHATDLLPA [peptide 9, 20-mer peptide from GAD65]”, the pIC50exp was 1.52.
